PMC6736568, “Discovery of Novel Anti-cryptosporidial Activities From Natural Products by in vitro High-Throughput Phenotypic Screening” (Frontiers in Microbiology, 2019)
Structures can show the parent of a compound that is named as a salt. Where two headings read alike, the source gives them in different places.

Key:
Cryptosporidium parvum = assay: qRT-PCR assay of the growth of C. parvum in vitro in HCT-8 host cells (primary and secondary screening, EC50); assay type: cell-based; details: Cryptosporidium parvum, HCT-8; for inhibition at 10 µM: primary screening at 10 uM, read-out: Inhibition (%); for inhibition at 3.3 µM: secondary screening at 3.3 uM, read-out: % Inhibition (3.3 uM)
[1] = primary screening at 10 uM, treated vs control

| Compound | inhibition at 10 µM (Cryptosporidium parvum) | Hs18S ΔCT (HCT-8 host cells (Hs18S); human, 41 h, 10 μM) | cytotoxicity at 41 h, 10 µM (in vitro; human) | inhibition at 3.3 µM (Cryptosporidium parvum) | Hs18S ΔCT (HCT-8 host cells (Hs18S); [1]) | cytotoxicity at 10 µM (in vitro) | cytotoxicity at 41 h, 10 µM (in vitro) |
| --- | --- | --- | --- | --- | --- | --- | --- |
| COc1cc(-c2coc3cc(O[C@@H]4O[C@H](CO)[C@@H](O)[C@H](O)[C@H]4O)c(OC)c(O)c3c2=O)cc(O)c1OC [IRIDIN] | -13.3% | -0.14 | -10% |  |  |  |  |
| CC(C)=CCC1=C(O)C(=O)c2ccccc2C1=O [LAPACHOL] | 91.3% | -0.60 | -52% | -98% |  |  |  |
| O=C(O)c1cccnc1 [NIACIN] | -6.7% | 0.08 | 5.3% |  |  |  |  |
| C=CC(C)(O)CCC=C(C)CCC=C(C)C (mixture of isomers) [NEROLIDOL] | -35.5% | -0.17 | -12.9% |  |  |  |  |
| O=c1c(-c2ccc(O)cc2)coc2c([C@@H]3O[C@H](CO)[C@@H](O)[C@H](O)[C@H]3O)c(O)ccc12 [PUERARIN] | -23% |  | -37.4% |  | -0.46 |  |  |
| COC1=CC(=O)C=C(OC)C1=O [2,6-DIMETHOXYQUINONE] | -5.86% |  |  |  | -0.06 | -4.3% |  |
| COc1cc2c(cc1OC)C1(O)C(=O)c3ccc(O)c(C(=O)O)c3OC1CO2 (stereo not drawn) [12a-HYDROXY-9-DEMETHYLMUNDUSERONE-8-CARBOXYLIC ACID] | 0.54% |  |  |  | 0.06 | 4.1% |  |
| CC(C)c1ccc2c(c1O)CC[C@H]1C3=C(CC[C@]21C)C(=O)OC3 [TRIPTOPHENOLIDE] | -24.5% | -0.29 | -22.1% |  |  |  |  |
| COc1cc2c(c(OC)c1OC)-c1ccc(=O)c(O)cc1[C@@H](NC(C)=O)CC2 [COLCHICEINE] | 13.7% |  |  |  | -0.43 | -34.9% |  |
| CC1=C2C(O)C(=O)OC3CC4C(C)(C)C(=O)C=C[C@]4(C)C(CC1)[C@]23C (stereo partly drawn) [MEROGEDUNIN] | -12.3% | -0.50 | -41.1% |  |  |  |  |
| COc1ccc(-c2coc3cc(O)ccc3c2=O)cc1 [FORMONONETIN] | 13.2% | -0.62 | -53.6% |  |  |  |  |
| COc1cc2c(c(OC)c1OC)-c1ccc(OC)c(=O)cc1[C@@H](NC(C)=O)CC2 [COLCHICINE] | 24.9% |  |  |  | -0.34 | -26.5% |  |
| CC1=CC(=O)C(C(C)C)=CC1=O [THYMOQUINONE] | 3.13% | -0.08 | -5.8% |  |  |  |  |
| CC[C@@H]1C(=O)OC[C@@H]1Cc1cncn1C [PILOCARPINE NITRATE] | -30.2% | -0.10 | -7.3% |  |  |  |  |
| C[C@]12CC[C@@H]3c4ccc(O)cc4CC[C@H]3[C@@H]1CC[C@@H]2O [ESTRADIOL] | 22% | -0.19 | -13.8% |  |  |  |  |
| O=C(/C=C/c1ccc(O)cc1)c1ccc(O)cc1O [ISOLIQUIRITIGENIN] | 52.9% | -0.34 | -26.4% |  |  |  |  |
| OC[C@@H]1CCCN2CCCC[C@H]12 [LUPININE] | 26.1% | 0.18 | 11.8% |  |  |  |  |
| COC(=O)c1c(C)cc(OC(=O)c2c(C)cc(O)c(C=O)c2O)c(C)c1O [ATRANORIN] | -45.9% | 1.02 | 50.7% |  |  |  |  |
| COc1cc(O)c2c(=O)cc(C)oc2c1CC=C(C)C [HETEROPEUCENIN, METHYL ETHER] | -96.3% | -0.10 | -7.2% |  |  |  |  |
| CCC(C)C(=O)O[C@@H]1C[C@@]2(C)[C@H](c3ccoc3)OC(=O)CC23OC2(C)O[C@]14[C@]1(C)[C@@H](CC(=O)OC)C5(C)CC1(O)[C@](O)(C5OC(=O)C1(C)OC1C)[C@@H](OC(C)=O)[C@]34O2 (stereo partly drawn) [UTILIN] | 36.8% | 0.06 | 4.2% |  |  |  |  |
| COc1cc(/C=C/C(=O)N2CCC=CC2=O)cc(OC)c1OC [PIPLARTINE] | 73.7% |  |  | 10% | 0.33 | 20.5% |  |
| C=C(C)c1cc2cc(C(C)=O)c(O)cc2o1 [EUPARIN] | 19% |  |  |  | 0.23 | 14.6% |  |
| CC(=O)O[C@H]1C[C@@]2(C)[C@@H](C[C@@H](O)[C@H]3[C@@]4(C)CC[C@@H](O)[C@@H](C)[C@@H]4CC[C@@]32C)/C1=C(\CCC=C(C)C)C(=O)O [FUSIDIC ACID] | -82.8% | -0.30 | -23.2% |  |  |  |  |
| COC(=O)CC[C@@H](C)[C@H]1CC[C@H]2[C@@H]3[C@H](O)C[C@@H]4C[C@H](O)CC[C@]4(C)[C@H]3C[C@H](O)[C@]12C [CHOLIC ACID, METHYL ESTER] | 42.1% | -0.11 | -7.7% |  |  |  |  |

| Compound | inhibition at 10 µM (Cryptosporidium parvum) | Hs18S ΔCT (HCT-8 host cells (Hs18S); human, 41 h, 10 μM) | cytotoxicity at 41 h, 10 µM (in vitro; human) | inhibition at 3.3 µM (Cryptosporidium parvum) | Hs18S ΔCT (HCT-8 host cells (Hs18S); [1]) | cytotoxicity at 10 µM (in vitro) | cytotoxicity at 41 h, 10 µM (in vitro) |
| --- | --- | --- | --- | --- | --- | --- | --- |
| O=C(O)c1cc(O)c2c(c1)[C@H]([C@H]1c3cc(C(=O)O)cc(O)c3C(=O)c3c(O[C@@H]4O[C@H](CO)[C@@H](O)[C@H](O)[C@H]4O)cccc31)c1cccc(O[C@@H]3O[C@H](CO)[C@@H](O)[C@H](O)[C@H]3O)c1C2=O [SENNOSIDE A] | -4.71% |  |  |  | -0.08 | -6.1% |  |
| CC(=O)O[C@@H]1[C@H]2CC[C@H]3[C@@](C)(O)[C@@H]4C[C@H](O)C(C)(C)[C@@]4(O)[C@H](O)C[C@@]13C[C@@]2(C)O [GR[…]] | 3.95% |  |  |  | -0.03 | -2.4% |  |
| CCCCCCCCCCCC1=C(O)C(=O)C=C(O)C1=O [EMBELIN] | -5.38% |  |  |  | 0.13 | 8.8% |  |
| C[C@H]1C(=O)CC[C@@H]2[C@]1(C)CC[C@H]1[C@@]2(C)CC[C@@]2(C)[C@@H]3CC(C)(C)CC[C@]3(C)CC[C@]12C [FRIEDELIN] | 20.8% |  |  |  | -0.23 | -17.6% |  |
| CCOC(=O)CCCCCCCCCCCCC1C=CCC1 (stereo not drawn) [CHAULMOOGRIC ACID, ETHYL ESTER] | -0.95% | -0.15 | -10.8% |  |  |  |  |
| Cc1cc(O)c2c(c1)C(=O)c1cc(O)cc(O)c1C2=O [EMODIN] | -18% | -0.04 | -3% |  |  |  |  |
| NCCC(=O)N[C@@H](Cc1cnc[nH]1)C(=O)O [CARNOSINE] | 41.1% | 0.08 | 5.5% |  |  |  |  |
| COC(=O)C[C@H]1C(C)(C)[C@@H](OC(C)=O)[C@@H]2CC3C4CC(=O)O[C@@H](c5ccoc5)[C@]4(C)CCC3[C@@]1(C)C2=O (stereo partly drawn) [DIHYDROFISSINOLIDE] | 4.5% | 0.08 | 5.3% |  |  |  |  |
| COc1cc(C2Oc3cc([C@H]4Oc5cc(O)cc(O)c5C(=O)[C@@H]4O)ccc3OC2CO)ccc1O (stereo partly drawn) [SILIBININ] | 93.5% | -0.02 | -1.4% | -30% |  |  |  |
| O=c1oc2c(O)c(O)cc3c(=O)oc4c(O)c(O)cc1c4c23 [ELLAGIC ACID] | -14.6% | -0.05 | -3.6% |  |  |  |  |
| CCOc1cccc(C(=O)c2ccc(O)c(O)c2O)c1 | -37.2% | -0.39 | -31.4% |  |  |  |  |
| COc1cc2occc2c2oc(=O)ccc12 [ISOBERGAPTENE] | 2% |  |  |  | 0.17 | 11% |  |
| CCOc1ccc(C(=O)c2ccc(OC)c(O)c2O)cc1 [2,3-DIHYDROXY-4-METHOXY-4'-ETHOXYBENZOPHENONE] | 39% | -0.12 | -8.6% |  |  |  |  |
| COc1cc2c(cc1OC)[C@H](C)NCC2 [SALSOLIDINE] | 47.1% |  |  |  | 0.32 |  | 20% |
| C=CC(C1=CC(=O)C=CC1=O)c1ccccc1 (stereo not drawn) [DALBERGIONE] | 32.8% | 0.33 | 20.4% |  |  |  |  |
| COc1cc(CNC(=O)CCCC/C=C/C(C)C)ccc1O [CAPSAICIN] | -54.2% |  |  |  | 0.00 | 0.1% |  |
| COC(=O)[C@H]1[C@H]2C[C@H]3c4[nH]c5ccccc5c4CCN3C[C@H]2CC[C@@H]1O [RAUWOLSCINE HYDROCHLORIDE] | 22.9% | -0.17 | -12.6% |  |  |  |  |
| OC[C@H]1O[C@@H](OCCc2ccc(O)cc2)[C@H](O)[C@@H](O)[C@@H]1O [SALIDROSIDE] | 14.8% | -0.22 | -16.1% |  |  |  |  |
| COC(=O)c1cc(OC)c(=O)c2c(OC)c(OC)ccc2c1 [METHYL 7-DESOXYPURPUROGALLIN-7-CARBOXYLATE TRIMETHYL ETHER] | -15.9% | 0.00 | 0.1% |  |  |  |  |
| CO[C@H]1[C@H](O)[C@@H](O)[C@H](O)[C@H](O)[C@H]1O [QUEBRACHITOL] | -39% | -0.16 | -11.4% |  |  |  |  |
| O=C(CCc1ccc(O)cc1)c1c(O)cc(O)cc1O [PHLORETIN] | -5.73% | -0.15 | -10.8% |  |  |  |  |
| COc1ccc(-c2cc(=O)c3c(O)c(OC)c(O[C@@H]4O[C@H](CO[C@@H]5O[C@@H](C)[C@H](O)[C@@H](O)[C@H]5O)[C@@H](O)[C@H](O)[C@H]4O)cc3o2)cc1 [PECTOLINARIN] | -21% | 1.99 | 74.8% |  |  |  |  |
| CC1(C)O[C@H]2CC(=O)OC[C@]23[C@H]2CC[C@@]4(C)[C@H](c5ccoc5)OC(=O)[C@H]5O[C@]54[C@]2(C)C(=O)C[C@@H]13 [LIMONIN] | 26.2% | -0.12 | -8.4% |  |  |  |  |
| COC1=CC(=O)O[C@@H](/C=C/c2ccccc2)C1 [KAWAIN] | 16% |  |  |  | -0.15 | -10.9% |  |
